Measurements published in patent publication US12655106B2 (Eikonizo Therapeutics, Inc., priority 2021, dated 2026).

Columns and labels:
[1] = target: T1, Full length Human HDAC8 (Homo sapiens, UniProt Q9BY41); assay: Caliper endpoint assay for HDAC enzymatic activity (HDAC8); type: biochemical; settings: in vitro enzymatic, 30 min pre-incubation, 1 μM substrate peptide
T1 construct: Full length Human HDAC8; HIS (N); host or cells: baculovirus expression system
T1 sequence (Q9BY41 1-377): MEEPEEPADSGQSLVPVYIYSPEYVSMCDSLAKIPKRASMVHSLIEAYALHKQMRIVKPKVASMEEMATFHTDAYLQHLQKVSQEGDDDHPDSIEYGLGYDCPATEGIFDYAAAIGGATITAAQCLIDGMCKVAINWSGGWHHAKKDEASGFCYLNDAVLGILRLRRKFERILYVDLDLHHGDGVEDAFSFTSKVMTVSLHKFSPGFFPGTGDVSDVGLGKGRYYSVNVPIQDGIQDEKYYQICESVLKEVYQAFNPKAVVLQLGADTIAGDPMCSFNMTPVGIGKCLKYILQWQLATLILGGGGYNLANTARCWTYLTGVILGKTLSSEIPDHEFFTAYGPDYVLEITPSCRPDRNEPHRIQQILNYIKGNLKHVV

[2] = target: T2, Full length Human HDAC6 (Homo sapiens, UniProt Q9UBN7); assay: Caliper endpoint assay for HDAC enzymatic activity (HDAC6); type: biochemical; settings: for IC50: in vitro enzymatic, Caliper endpoint assay, 30 min pre-incubation, 1 μM substrate peptide; for Selectivity (6 v 8): ratio of HDAC8 IC50/HDAC6 IC50
T2 construct: Full length Human HDAC6; FLAG (C); host or cells: baculovirus expression system
T2 sequence (Q9UBN7 1-1215): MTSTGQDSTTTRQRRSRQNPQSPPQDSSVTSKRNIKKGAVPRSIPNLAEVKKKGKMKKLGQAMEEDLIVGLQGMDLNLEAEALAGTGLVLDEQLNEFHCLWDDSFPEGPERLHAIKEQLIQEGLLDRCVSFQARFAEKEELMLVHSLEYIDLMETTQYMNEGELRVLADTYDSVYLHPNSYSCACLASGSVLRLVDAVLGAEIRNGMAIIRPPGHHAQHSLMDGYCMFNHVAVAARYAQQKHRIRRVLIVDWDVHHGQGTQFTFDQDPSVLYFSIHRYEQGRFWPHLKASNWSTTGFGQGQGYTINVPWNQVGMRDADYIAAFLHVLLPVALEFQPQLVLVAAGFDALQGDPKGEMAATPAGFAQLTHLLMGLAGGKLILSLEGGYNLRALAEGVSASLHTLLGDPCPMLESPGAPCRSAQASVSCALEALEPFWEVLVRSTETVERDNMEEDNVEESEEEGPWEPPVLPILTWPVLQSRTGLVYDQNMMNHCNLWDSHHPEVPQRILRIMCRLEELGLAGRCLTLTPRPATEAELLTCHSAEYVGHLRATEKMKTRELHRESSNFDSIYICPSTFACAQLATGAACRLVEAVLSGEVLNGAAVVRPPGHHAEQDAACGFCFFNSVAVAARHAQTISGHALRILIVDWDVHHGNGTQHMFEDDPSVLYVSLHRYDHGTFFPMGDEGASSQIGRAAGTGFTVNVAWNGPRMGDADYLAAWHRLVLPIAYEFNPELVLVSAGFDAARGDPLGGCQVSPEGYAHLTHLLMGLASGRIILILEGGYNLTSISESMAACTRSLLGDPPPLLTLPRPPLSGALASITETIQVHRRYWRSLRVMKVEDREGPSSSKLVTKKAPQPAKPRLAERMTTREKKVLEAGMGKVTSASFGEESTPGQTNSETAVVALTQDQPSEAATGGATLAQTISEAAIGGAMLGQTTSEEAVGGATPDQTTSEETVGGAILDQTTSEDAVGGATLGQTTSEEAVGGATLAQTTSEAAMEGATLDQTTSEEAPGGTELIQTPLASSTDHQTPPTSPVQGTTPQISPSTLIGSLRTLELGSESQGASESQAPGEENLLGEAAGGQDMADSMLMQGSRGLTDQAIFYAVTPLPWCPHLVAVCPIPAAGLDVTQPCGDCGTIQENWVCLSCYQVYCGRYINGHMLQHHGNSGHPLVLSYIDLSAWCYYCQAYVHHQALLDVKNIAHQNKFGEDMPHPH

IC50 [1] [nM] | IC50 [2] [nM] | Selectivity (6 v 8) [2] | SMILES
1000 to 10000 | 1 to 100 | IV (IV: >100-1000) | O=C(NO)c1cc(F)c2c(c1)CCN(C1CC3(CCCO3)C1)C2 (single isomer, unassigned) [Compound 190, 8-fluoro-N-hydroxy-2-(5-oxaspiro[3.4]octan-2-yl)-1,2,3,4-tetrahydroisoquinoline-6-carboxamide]
10000 to 100000 | 1 to 100 | IV (IV: >100-1000) | O=C(NO)c1cc(F)c2c(c1)CCN(C1CC3(CCCO3)C1)C2 (single isomer, unassigned) [Compound 191, 8-fluoro-N-hydroxy-2-(5-oxaspiro[3.4]octan-2-yl)-1,2,3,4-tetrahydroisoquinoline-6-carboxamide]
10000 to 100000 | 1 to 100 | V (V: >1000) | O=C(NO)c1cc(F)c2c(c1)CCN([C@@H]1CCCC3(CCC3)C1)C2 (single isomer, unassigned) [Compound 194]
10000 to 100000 | 1 to 100 | IV (IV: >100-1000) | O=C(NO)c1cc(F)c2c(c1)CCN([C@H]1CCCC3(CCC3)C1)C2 (single isomer, unassigned) [Compound 195]
1000 to 10000 | 1 to 100 | III (III: >10-100) | O=C(NO)c1cc(F)c2c(c1)CN(C[C@@H]1CCCCO1)CC2 (single isomer, unassigned) [Compound 214]
100 to 1000 | 1 to 100 | II (II: >1-10) | O=C(NO)c1cc(F)c2c(c1)CN(C[C@H]1CCCCO1)CC2 (single isomer, unassigned) [Compound 215]
> 100000 | 1 to 100 | V (V: >1000) | CC[C@H]1Cc2c(F)cc(C(=O)NO)cc2CN1CC1COC1 (single isomer, unassigned) [Compound 216]
10000 to 100000 | 1 to 100 | IV (IV: >100-1000) | CC[C@@H]1Cc2c(F)cc(C(=O)NO)cc2CN1CC1COC1 (single isomer, unassigned) [Compound 217]
1000 to 10000 | 1 to 100 | III (III: >10-100) | CC[C@@H]1Cc2c(F)cc(C(=O)NO)cc2CN1C[C@@H]1CCCCO1 (single isomer, unassigned) [Compound 228]
1000 to 10000 | 100 to 1000 | III (III: >10-100) | CC[C@H]1Cc2c(F)cc(C(=O)NO)cc2CN1C[C@@H]1CCCCO1 (single isomer, unassigned) [Compound 229]
1000 to 10000 | 1 to 100 | III (III: >10-100) | CC[C@@H]1Cc2c(F)cc(C(=O)NO)cc2CN1C[C@H]1CCCCO1 (single isomer, unassigned) [Compound 230]
1000 to 10000 | 1 to 100 | IV (IV: >100-1000) | CC[C@H]1Cc2c(F)cc(C(=O)NO)cc2CN1C[C@H]1CCCCO1 (single isomer, unassigned) [Compound 231]
10000 to 100000 | 100 to 1000 | IV (IV: >100-1000) | CC[C@@H]1Cc2c(F)cc(C(=O)NO)cc2CN1C1CC2(CCCCC2)C1 (single isomer, unassigned) [Compound 232]
10000 to 100000 | 1 to 100 | IV (IV: >100-1000) | CC[C@H]1Cc2c(F)cc(C(=O)NO)cc2CN1C1CC2(CCCCC2)C1 (single isomer, unassigned) [Compound 233]
1000 to 10000 | 100 to 1000 | II (II: >1-10) | CC[C@@H](c1ccc(C(=O)NO)cc1F)N1CCC2(CCCCC2)C1 (single isomer, unassigned) [Compound 237]
1000 to 10000 | 100 to 1000 | III (III: >10-100) | CC[C@H](c1ccc(C(=O)NO)cc1F)N1CCC2(CCCCC2)C1 (single isomer, unassigned) [Compound 238]
1000 to 10000 | 10000 to 100000 | I (I: 0.1-1) | CC(C)N1CC2(CCCCC2)CC[C@H]1Cc1cc(F)cc(C(=O)NO)c1 (single isomer, unassigned) [Compound 274]
1000 to 10000 | 1000 to 10000 | I (I: 0.1-1) | CC(C)N1CC2(CCCCC2)CC[C@@H]1Cc1cc(F)cc(C(=O)NO)c1 (single isomer, unassigned) [Compound 275]
10000 to 100000 | 1 to 100 | IV (IV: >100-1000) | O=C(NO)c1cc(F)c2c(c1)CCN([C@H]1CC[C@@]13CCOC3)C2 (single isomer, unassigned) [Compound 315]
10000 to 100000 | 1 to 100 | V (V: >1000) | O=C(NO)c1cc(F)c2c(c1)CCN([C@H]1CC[C@]13CCOC3)C2 (single isomer, unassigned) [Compound 316]
10000 to 100000 | 1 to 100 | IV (IV: >100-1000) | O=C(NO)c1cc(F)c2c(c1)CCN([C@@H]1CC[C@@]13CCOC3)C2 (single isomer, unassigned) [Compound 317]
10000 to 100000 | 1 to 100 | V (V: >1000) | O=C(NO)c1cc(F)c2c(c1)CCN([C@@H]1CC[C@]13CCOC3)C2 (single isomer, unassigned) [Compound 318]
1000 to 10000 | 1 to 100 | IV (IV: >100-1000) | O=C(NO)c1cc(F)c2c(c1)CCN(C1CC[C@@]13CCCO3)C2 (single isomer, unassigned) [Compound 319]
10000 to 100000 | 1 to 100 | IV (IV: >100-1000) | O=C(NO)c1cc(F)c2c(c1)CCN(C1CC[C@]13CCCO3)C2 (single isomer, unassigned) [Compound 320]
1000 to 10000 | 1 to 100 | III (III: >10-100) | CN1CC[C@@]2(CC[C@@H]2N2CCc3cc(C(=O)NO)cc(F)c3C2)C1 (single isomer, unassigned) [Compound 329]
10000 to 100000 | 1 to 100 | IV (IV: >100-1000) | CN1CC[C@]2(CC[C@@H]2N2CCc3cc(C(=O)NO)cc(F)c3C2)C1 (single isomer, unassigned) [Compound 330]
10000 to 100000 | 1 to 100 | IV (IV: >100-1000) | CN1CC[C@@]2(CC[C@H]2N2CCc3cc(C(=O)NO)cc(F)c3C2)C1 (single isomer, unassigned) [Compound 331]
1000 to 10000 | 100 to 1000 | III (III: >10-100) | CN1CC[C@]2(CC[C@H]2N2CCc3cc(C(=O)NO)cc(F)c3C2)C1 (single isomer, unassigned) [Compound 332]
10000 to 100000 | 1 to 100 | IV (IV: >100-1000) | O=C(NO)c1cc(F)c2c(c1)CCN([C@H]1C[C@]3(CCCCO3)C1)C2 (single isomer, unassigned) [Compound 339, 8-fluoro-2-(5-oxaspiro[3.5]nonan-2-yl)-3,4-dihydro-1H-isoquinoline-6-carbohydroxamic acid]
10000 to 100000 | 1 to 100 | V (V: >1000) | O=C(NO)c1cc(F)c2c(c1)CCN([C@H]1C[C@@]3(CCCCO3)C1)C2 (single isomer, unassigned) [Compound 340, 8-fluoro-2-(5-oxaspiro[3.5]nonan-2-yl)-3,4-dihydro-1H-isoquinoline-6-carbohydroxamic acid]
